Assay results published in ChEMBL document CHEMBL4507279, “Data for DCP probe BI-9627” (2021).

How the values were obtained:
Conditions in all cases: Compound concentration 1000.0 nM
[1] = molecular target: Tyrosine-protein kinase ABL1 (Homo sapiens) (UniProt P00519)
[2] = molecular target: RAC-beta serine/threonine-protein kinase (Homo sapiens) (UniProt P31751)
[3] = test system: ALK tyrosine kinase receptor (Homo sapiens), Q9UM73 [C1156Y]
[4] = molecular target: Mitogen-activated protein kinase kinase kinase 6 (Homo sapiens) (UniProt O95382)
[5] = molecular target: Serine/threonine-protein kinase B-raf (Homo sapiens) (UniProt P15056)
[6] = molecular target: Serine/threonine-protein kinase BRSK2 (Homo sapiens) (UniProt Q8IWQ3)
[7] = molecular target: Calcium/calmodulin-dependent protein kinase type II subunit gamma (Homo sapiens) (UniProt Q13555)
[8] = molecular target: Cyclin-dependent kinase 13 (Homo sapiens) (UniProt Q14004)
[9] = molecular target: Cyclin-dependent kinase 4 (Homo sapiens) (UniProt P11802)
[10] = molecular target: Cyclin-dependent kinase-like 5 (Homo sapiens) (UniProt O76039)
[11] = molecular target: Serine/threonine-protein kinase DCLK3 (Homo sapiens) (UniProt Q9C098)
[12] = molecular target: Discoidin domain-containing receptor 2 (Homo sapiens) (UniProt Q16832)
[13] = molecular target: Ephrin type-B receptor 6 (Homo sapiens) (UniProt O15197)
[14] = molecular target: Receptor tyrosine-protein kinase erbB-3 (Homo sapiens) (UniProt P21860)
[15] = molecular target: Fibroblast growth factor receptor 2 (Homo sapiens) (UniProt P21802)
[16] = test system: Receptor-type tyrosine-protein kinase FLT3 (Homo sapiens), P36888 [D835H]
[17] = test system: Receptor-type tyrosine-protein kinase FLT3 (Homo sapiens), P36888 [UNDEFINED MUTATION]
[18] = molecular target: Homeodomain-interacting protein kinase 3 (Homo sapiens) (UniProt Q9H422)
[19] = molecular target: Mitogen-activated protein kinase kinase kinase kinase 1 (Homo sapiens) (UniProt Q92918)
[20] = molecular target: Mast/stem cell growth factor receptor Kit (Homo sapiens) (UniProt P10721)
[21] = molecular target: Serine/threonine-protein kinase STK11 (Homo sapiens) (UniProt Q15831)
[22] = molecular target: Serine/threonine-protein kinase 10 (Homo sapiens) (UniProt O94804)
[23] = molecular target: Leukocyte tyrosine kinase receptor (Homo sapiens) (UniProt P29376)
[24] = molecular target: Mitogen-activated protein kinase kinase kinase kinase 3 (Homo sapiens) (UniProt Q8IVH8)
[25] = molecular target: Mitogen-activated protein kinase kinase kinase kinase 4 (Homo sapiens) (UniProt O95819)
[26] = molecular target: Dual specificity mitogen-activated protein kinase kinase 7 (Homo sapiens) (UniProt O14733)
[27] = molecular target: Serine/threonine-protein kinase 4 (Homo sapiens) (UniProt Q13043)
[28] = molecular target: Serine/threonine-protein kinase 26 (Homo sapiens) (UniProt Q9P289)
[29] = molecular target: Myosin light chain kinase family member 4 (Homo sapiens) (UniProt Q86YV6)
[30] = molecular target: Serine/threonine-protein kinase Nek5 (Homo sapiens) (UniProt Q6P3R8)
[31] = molecular target: Mitogen-activated protein kinase 13 (Homo sapiens) (UniProt O15264)
[32] = molecular target: Cyclin-dependent kinase 2 homolog (Plasmodium falciparum (isolate 3D7)) (UniProt P61075)
[33] = molecular target: Proto-oncogene tyrosine-protein kinase receptor Ret (Homo sapiens) (UniProt P07949)
[34] = molecular target: Serine/threonine-protein kinase RIO3 (Homo sapiens) (UniProt O14730)
[35] = molecular target: Receptor-interacting serine/threonine-protein kinase 4 (Homo sapiens) (UniProt P57078)
[36] = molecular target: Rho-associated protein kinase 1 (Homo sapiens) (UniProt Q13464)
[37] = molecular target: Ribosomal protein S6 kinase alpha-2 (Homo sapiens) (UniProt Q15349)
[38] = molecular target: Ribosomal protein S6 kinase alpha-6 (Homo sapiens) (UniProt Q9UK32)
[39] = molecular target: Tyrosine-protein kinase Srms (Homo sapiens) (UniProt Q9H3Y6)
[40] = molecular target: Serine/threonine-protein kinase TAO1 (Homo sapiens) (UniProt Q7L7X3)
[41] = molecular target: Serine/threonine-protein kinase tousled-like 1 (Homo sapiens) (UniProt Q9UKI8)
[42] = molecular target: Serine/threonine-protein kinase TNNI3K (Homo sapiens) (UniProt Q59H18)
[43] = molecular target: Wee1-like protein kinase 2 (Homo sapiens) (UniProt P0C1S8)
[44] = molecular target: Tyrosine-protein kinase Yes (Homo sapiens) (UniProt P07947)

Measured: residual activity

Sequence of Cyclin-dependent kinase 4 (Homo sapiens) (P11802 whole entry): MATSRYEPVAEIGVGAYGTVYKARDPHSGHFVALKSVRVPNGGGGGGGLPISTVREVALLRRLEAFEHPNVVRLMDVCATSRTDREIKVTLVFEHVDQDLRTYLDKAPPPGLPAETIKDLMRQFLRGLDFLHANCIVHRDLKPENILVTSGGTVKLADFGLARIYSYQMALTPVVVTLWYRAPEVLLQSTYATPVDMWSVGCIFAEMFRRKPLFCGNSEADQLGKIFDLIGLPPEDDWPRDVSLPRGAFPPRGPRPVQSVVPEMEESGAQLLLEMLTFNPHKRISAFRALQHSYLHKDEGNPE
Sequence of Discoidin domain-containing receptor 2 (Homo sapiens) (Q16832 whole entry, the tested form may be a part): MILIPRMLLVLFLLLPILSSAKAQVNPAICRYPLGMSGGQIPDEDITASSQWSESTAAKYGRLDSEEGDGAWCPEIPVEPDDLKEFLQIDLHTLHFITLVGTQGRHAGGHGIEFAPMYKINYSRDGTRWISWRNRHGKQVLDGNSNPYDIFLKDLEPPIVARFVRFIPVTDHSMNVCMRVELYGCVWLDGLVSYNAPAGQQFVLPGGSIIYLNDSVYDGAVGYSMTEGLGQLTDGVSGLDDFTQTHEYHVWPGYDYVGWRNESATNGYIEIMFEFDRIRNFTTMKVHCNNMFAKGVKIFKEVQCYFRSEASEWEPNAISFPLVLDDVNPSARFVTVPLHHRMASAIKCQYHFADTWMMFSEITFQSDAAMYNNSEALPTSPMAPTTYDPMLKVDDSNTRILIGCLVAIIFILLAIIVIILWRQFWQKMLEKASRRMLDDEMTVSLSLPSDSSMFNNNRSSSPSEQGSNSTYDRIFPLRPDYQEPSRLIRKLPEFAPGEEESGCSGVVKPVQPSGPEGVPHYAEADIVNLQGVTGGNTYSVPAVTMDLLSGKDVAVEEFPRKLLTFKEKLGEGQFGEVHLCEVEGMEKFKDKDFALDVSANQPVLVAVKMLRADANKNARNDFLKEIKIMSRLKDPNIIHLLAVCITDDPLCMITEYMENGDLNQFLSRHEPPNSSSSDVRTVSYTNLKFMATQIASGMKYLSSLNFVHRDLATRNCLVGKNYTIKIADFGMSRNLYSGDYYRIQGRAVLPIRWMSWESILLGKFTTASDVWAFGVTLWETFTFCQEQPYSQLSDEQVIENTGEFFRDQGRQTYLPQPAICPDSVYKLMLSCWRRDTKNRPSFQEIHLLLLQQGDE
Sequence of Tyrosine-protein kinase Srms (Homo sapiens) (Q9H3Y6 whole entry): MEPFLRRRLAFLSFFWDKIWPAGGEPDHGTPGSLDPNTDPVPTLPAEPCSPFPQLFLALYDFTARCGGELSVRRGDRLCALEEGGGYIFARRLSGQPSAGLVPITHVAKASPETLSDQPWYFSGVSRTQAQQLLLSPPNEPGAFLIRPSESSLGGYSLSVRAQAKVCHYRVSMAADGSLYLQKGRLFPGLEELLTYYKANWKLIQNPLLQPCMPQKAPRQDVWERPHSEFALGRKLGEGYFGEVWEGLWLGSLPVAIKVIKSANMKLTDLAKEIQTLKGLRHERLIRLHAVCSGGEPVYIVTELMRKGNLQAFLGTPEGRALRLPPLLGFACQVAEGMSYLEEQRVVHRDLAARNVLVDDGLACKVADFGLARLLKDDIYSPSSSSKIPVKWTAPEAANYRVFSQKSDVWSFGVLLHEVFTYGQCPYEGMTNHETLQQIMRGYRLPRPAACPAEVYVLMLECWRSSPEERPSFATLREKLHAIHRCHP
Sequence of Serine/threonine-protein kinase 10 (Homo sapiens) (O94804 whole entry, looked up): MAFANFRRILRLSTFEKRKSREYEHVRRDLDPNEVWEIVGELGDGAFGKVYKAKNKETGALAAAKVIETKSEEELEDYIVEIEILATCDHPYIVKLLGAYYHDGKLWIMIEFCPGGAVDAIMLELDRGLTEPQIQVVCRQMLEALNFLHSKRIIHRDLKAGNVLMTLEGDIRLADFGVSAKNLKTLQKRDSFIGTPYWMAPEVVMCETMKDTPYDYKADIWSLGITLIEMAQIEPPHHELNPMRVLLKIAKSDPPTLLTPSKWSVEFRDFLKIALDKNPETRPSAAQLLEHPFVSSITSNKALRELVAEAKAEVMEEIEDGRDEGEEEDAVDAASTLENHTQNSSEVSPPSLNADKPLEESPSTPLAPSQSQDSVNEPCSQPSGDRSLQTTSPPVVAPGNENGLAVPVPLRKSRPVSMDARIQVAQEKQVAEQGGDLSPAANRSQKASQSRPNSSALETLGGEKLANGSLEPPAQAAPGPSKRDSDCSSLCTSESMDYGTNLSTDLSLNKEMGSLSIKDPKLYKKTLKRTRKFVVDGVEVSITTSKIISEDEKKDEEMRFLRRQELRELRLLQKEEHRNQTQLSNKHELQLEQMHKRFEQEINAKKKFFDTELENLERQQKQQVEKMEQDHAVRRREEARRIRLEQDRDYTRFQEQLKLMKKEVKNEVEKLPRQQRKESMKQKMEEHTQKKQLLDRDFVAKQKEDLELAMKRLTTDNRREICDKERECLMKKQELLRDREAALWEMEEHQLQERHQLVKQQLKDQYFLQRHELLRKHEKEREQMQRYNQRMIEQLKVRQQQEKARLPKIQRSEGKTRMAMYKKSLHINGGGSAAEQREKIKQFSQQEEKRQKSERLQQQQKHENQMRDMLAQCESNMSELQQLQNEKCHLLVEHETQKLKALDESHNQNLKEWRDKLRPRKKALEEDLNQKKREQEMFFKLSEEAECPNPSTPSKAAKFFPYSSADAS
Sequence of Mast/stem cell growth factor receptor Kit (Homo sapiens) (P10721 whole entry): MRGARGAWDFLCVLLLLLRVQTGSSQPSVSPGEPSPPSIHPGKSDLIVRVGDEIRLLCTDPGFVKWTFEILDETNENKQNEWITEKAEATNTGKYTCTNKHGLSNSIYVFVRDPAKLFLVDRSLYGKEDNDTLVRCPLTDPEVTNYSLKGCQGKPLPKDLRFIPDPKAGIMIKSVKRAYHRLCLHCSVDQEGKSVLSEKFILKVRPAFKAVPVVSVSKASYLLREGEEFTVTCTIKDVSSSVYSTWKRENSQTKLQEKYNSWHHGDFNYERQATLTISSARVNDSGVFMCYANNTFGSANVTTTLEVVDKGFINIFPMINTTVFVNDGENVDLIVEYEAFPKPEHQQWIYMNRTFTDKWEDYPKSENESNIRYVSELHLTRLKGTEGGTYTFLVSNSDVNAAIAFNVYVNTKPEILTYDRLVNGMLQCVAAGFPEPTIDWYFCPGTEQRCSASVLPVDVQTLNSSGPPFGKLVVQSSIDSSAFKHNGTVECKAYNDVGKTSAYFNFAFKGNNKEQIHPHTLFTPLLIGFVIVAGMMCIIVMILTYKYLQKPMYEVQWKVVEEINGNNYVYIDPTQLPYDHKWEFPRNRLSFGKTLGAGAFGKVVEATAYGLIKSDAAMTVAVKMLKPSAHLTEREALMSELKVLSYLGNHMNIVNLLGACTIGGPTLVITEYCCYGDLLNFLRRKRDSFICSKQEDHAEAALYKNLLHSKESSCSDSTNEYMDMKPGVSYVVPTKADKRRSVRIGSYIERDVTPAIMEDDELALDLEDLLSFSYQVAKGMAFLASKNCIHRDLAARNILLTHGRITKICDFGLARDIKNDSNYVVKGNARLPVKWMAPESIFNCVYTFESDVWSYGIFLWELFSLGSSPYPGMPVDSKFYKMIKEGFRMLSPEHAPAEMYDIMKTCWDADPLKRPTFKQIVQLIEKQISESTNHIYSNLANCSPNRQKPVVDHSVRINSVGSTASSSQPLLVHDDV
Sequence of Ribosomal protein S6 kinase alpha-2 (Homo sapiens) (Q15349 whole entry): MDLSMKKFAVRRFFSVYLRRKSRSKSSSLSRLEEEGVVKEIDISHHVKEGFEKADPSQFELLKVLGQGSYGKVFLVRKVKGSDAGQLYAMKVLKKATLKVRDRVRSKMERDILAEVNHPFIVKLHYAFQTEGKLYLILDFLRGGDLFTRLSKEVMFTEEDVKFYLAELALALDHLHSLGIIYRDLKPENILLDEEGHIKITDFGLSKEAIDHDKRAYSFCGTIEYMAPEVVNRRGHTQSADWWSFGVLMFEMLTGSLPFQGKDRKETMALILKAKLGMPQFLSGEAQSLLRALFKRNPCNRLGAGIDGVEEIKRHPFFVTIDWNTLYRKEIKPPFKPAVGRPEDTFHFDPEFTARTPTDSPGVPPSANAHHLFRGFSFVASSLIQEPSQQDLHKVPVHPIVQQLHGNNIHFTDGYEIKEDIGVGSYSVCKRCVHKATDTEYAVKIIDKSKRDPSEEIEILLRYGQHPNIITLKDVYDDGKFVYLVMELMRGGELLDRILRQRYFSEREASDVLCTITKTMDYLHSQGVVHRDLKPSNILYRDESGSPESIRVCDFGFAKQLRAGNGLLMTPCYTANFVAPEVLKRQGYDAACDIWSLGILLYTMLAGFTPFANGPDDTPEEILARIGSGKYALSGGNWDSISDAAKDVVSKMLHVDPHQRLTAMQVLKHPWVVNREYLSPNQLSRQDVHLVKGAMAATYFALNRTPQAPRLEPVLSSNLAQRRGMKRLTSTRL
Sequence of Myosin light chain kinase family member 4 (Homo sapiens) (Q86YV6 whole entry): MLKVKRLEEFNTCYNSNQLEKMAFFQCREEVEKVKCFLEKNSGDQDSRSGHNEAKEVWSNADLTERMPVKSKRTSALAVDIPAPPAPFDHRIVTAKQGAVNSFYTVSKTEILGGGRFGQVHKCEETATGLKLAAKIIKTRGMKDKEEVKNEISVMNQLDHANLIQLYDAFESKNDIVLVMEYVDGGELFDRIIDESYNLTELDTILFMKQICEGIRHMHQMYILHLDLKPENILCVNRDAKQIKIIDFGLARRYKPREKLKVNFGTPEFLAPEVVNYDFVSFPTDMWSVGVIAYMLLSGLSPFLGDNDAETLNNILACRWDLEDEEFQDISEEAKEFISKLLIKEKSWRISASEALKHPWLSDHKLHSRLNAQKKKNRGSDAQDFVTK
Sequence of Cyclin-dependent kinase 2 homolog (Plasmodium falciparum (isolate 3D7)) (P61075 whole entry): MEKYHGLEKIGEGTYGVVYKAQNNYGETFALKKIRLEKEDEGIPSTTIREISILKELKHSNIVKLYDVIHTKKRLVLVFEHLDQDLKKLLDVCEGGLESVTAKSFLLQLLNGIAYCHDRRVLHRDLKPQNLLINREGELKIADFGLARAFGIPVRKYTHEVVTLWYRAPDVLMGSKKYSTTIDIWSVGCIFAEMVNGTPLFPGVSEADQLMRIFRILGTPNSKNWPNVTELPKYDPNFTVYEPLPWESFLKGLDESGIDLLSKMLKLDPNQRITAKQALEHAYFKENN

CC(=O)N1CCC(c2ccc(C(=O)NC3=NCCN3)cc2C(F)(F)F)CC1 [BI 0054]
active: [36] 0.5%
inactive: [1] 83% | [2] 91% | [3] 100% | [4] 93% | [5] 100% | [6] 100% | [7] 100% | [8] 100% | [9] 98% | [10] 79% | [11] 100% | [12] 96% | [13] 100% | [14] 94% | [15] 86% | [16] 93% | [17] 88% | [18] 72% | [19] 100% | [20] 91% | [21] 71% | [22] 100% | [23] 100% | [24] 95% | [25] 100% | [26] 100% | [27] 100% | [28] 89% | [29] 100% | [30] 100% | [31] 75% | [32] 100% | [33] 100% | [34] 98% | [35] 64% | [37] 100% | [38] 98% | [39] 89% | [40] 100% | [41] 100% | [42] 98% | [43] 100% | [44] 100%

CC(=O)N1CCC(c2ccc(C(=O)NC(=N)N)cc2C(F)(F)F)CC1 [BI 9627]
inactive: [1] 89% | [2] 99% | [3] 100% | [4] 86% | [5] 100% | [6] 100% | [7] 100% | [8] 100% | [9] 100% | [10] 82% | [11] 98% | [12] 100% | [13] 100% | [14] 98% | [15] 100% | [16] 96% | [17] 80% | [18] 82% | [19] 100% | [20] 95% | [21] 73% | [22] 94% | [23] 100% | [24] 100% | [25] 100% | [26] 86% | [27] 98% | [28] 97% | [29] 100% | [30] 100% | [31] 83% | [32] 100% | [33] 100% | [34] 100% | [35] 76% | [36] 87% | [37] 90% | [38] 100% | [39] 80% | [40] 100% | [41] 100% | [42] 100% | [43] 100% | [44] 98%
